The results in this text go back to patent US20240271071A1, “METHOD AND APPARATUS FOR FORMING A MICROFLUIDIC GEL STRUCTURE” (Mimetas B.V., priority 2021, published 2024).

For this assay, the system named is HCAEC and HCASMC co-culture. Kind of assay: Visualising contractile lumen (vasodilation/vasoconstriction) in coronary artery tubule model. It is filed as cell-based, Human. To be noted: Sildenafil at day 6, 5 μM, 50 μM and 500 μM, after Norepinephrine at day 3; phase contrast images, 30 minutes post-exposure. On the procedure:
For this example, a 3-lane OrganoPlate® ([…]) with 400 μm wide lanes was used, which comprises a microfluidic network of 3 lanes and two capillary pressure barriers. The network was filled with 50 μL HBSS in the observation window (the point where the 3 lanes converge) to provide additional humidity to the plate. The central lane was filled at the inlet with a neutralised bovine type I atelocollagen solution PureCol® EZ Gel 5 mg/ml (Advanced BioMatrix); the solution was pinned at the capillary pressure barrier leaving a free-standing meniscus at the air-liquid interface in the upper and lower lane. A 30 μL solution of HBSS was introduced into the inlet of the centre lane, and a 1 μL solution of 5% FBS in PBS was introduced at the hole of the outlet of the centre lane forming a dome shape as in Example 1. […] After 1 minute 50 μL of HBSS was added to the outlet and the OrganoPlate was placed in a humidity-controlled environment at 37° C. and 5% CO2 for 1 hour. For cell seeding, 1 μL of a cell suspension containing 10,000 cell/μL Primary Human Coronary Artery Endothelial Cells (HCAEC) and 2,500 cell/μL Primary Human Coronary Artery Smooth Muscle Cells (HCASMC) was seeded in the outlet of the middle lane. The cell suspension was driven into the microfluidic network by means of Laplace pressure due to the surface tension of the cell pellet. Cells were left to attach for between 2-6 hours. […]

On to `CCCc1nn(C)c2c(=O)[nH]c(-c3cc(S(=O)(=O)N4CCN(C)CC4)ccc3OCC)nc12` [Sildenafil], for which the “contraction of the tubule / change of lumen diameter upon exposure to a stimulus” value is recorded as “contraction”.
